Test results: patent US20070004759A1, “Fungicidal mixtures for controlling rice pathogens” (priority 2004, published 2007)

System: Cochliobolus miyabeanus
Assay: Activity against brown spot of rice caused by Cochliobolus miyabeanus, protective application
Type: in vivo
Details: individual active compound, rice seedlings cultivar Tai-Nong 67, protective spray, evaluated six days after inoculation
Protocol: The active compounds, separately or jointly, were prepared as a stock solution with 0.25% by weight of active compound in acetone or DMSO. 1% by weight of the emulsifier Uniperol® EL (wetting agent having emulsifying and dispersing action based on ethoxylated alkylphenols) was added to this solution, and the solution was diluted with water to the desired concentration.
Leaves of potted rice seedlings of the cultivar “Tai-Nong 67” were sprayed to runoff point with an aqueous suspension of the concentration of active compound stated below. The next day, the plants were inoculated with an aqueous spore suspension of Cochliobolus miyabeanus. The test plants were then placed in climatized chambers at 22-24° C. and 95-99% relative atmospheric humidity for six days. The extent of the development of the infection on the leaves was then determined visually.
Evaluation is carried out by determining the percentage of infected plants. These percentages were converted into efficacies.
The efficacy (E) is calculated as follows using Abbot's formula: E=(1−α/β)·100
α corresponds to the fungicidal infection of the treated plants in % and
β corresponds to the fungicidal infection of the untreated (control) plants in %
An efficacy of 0 means that the infection level of the treated plants corresponds to that of the untreated control plants; an efficacy of 100 means that the treated plants are not infected.
The expected efficacies of mixtures of active compounds are determined using Colby's formula (Colby, R. S., Weeds, 15, 20-22, 1967) and compared with the observed efficacies.
Colby's formula: E=x+y−x·y/100 • E expected efficacy, expressed in % of the untreated control, when using the mixture of the active compounds A and B at the concentrations a and b • x efficacy, expressed in % of the untreated control, when using the active compound A at the concentration a • y efficacy, expressed in % of the untreated control, when using the active compound B at the concentration b

Structure (SMILES) | Efficacy in % of the untreated control (4 ppm in the spray liquor) [%] | Efficacy in % of the untreated control (16 ppm in the spray liquor) [%]
CC1CCN(c2c(-c3c(F)cccc3Cl)c(Cl)nc3ncnn23)CC1 [A] | 29 | 53
CC1(C(=O)Nc2ccc(O)c(Cl)c2Cl)CCCCC1 [compound II, N-(2,3-dichloro-4-hydroxyphenyl)-1-methylcyclohexanecarboxamide] | 0 | 0
C[C@H](Nc1c(-c2c(F)cc(F)cc2Cl)c(Cl)nc2ncnn12)C(F)(F)F [B] | 5 | 41
CC1CCN(c2c(-c3c(F)cc(F)cc3F)c(Cl)nc3ncnn23)CC1 [compound I, 5-chloro-7-(4-methylpiperidin-1-yl)-6-(2,4,6-trifluorophenyl)-[1,2,4]triazolo[1,5-a]pyrimidine] | 5 | 17
